For orientation: IC50 means the concentration that gives 50% inhibition. The term inhibition denotes the change of the read-out against control, counted positive when it falls.

Among the data in ChEMBL document CHEMBL4808217, “Design, Synthesis, and Characterization of 4-Aminoquinazolines as Potent Inhibitors of the G Protein-Coupled Receptor Kinase 6 (GRK6) for the Treatment of Multiple Myeloma” (J Med Chem, 2021) are IC50 and inhibition values, retold here.

One assay concerns the target T1, Rhodopsin kinase GRK1 (Homo sapiens, UniProt Q15835).
T1 sequence (Q15835 whole entry): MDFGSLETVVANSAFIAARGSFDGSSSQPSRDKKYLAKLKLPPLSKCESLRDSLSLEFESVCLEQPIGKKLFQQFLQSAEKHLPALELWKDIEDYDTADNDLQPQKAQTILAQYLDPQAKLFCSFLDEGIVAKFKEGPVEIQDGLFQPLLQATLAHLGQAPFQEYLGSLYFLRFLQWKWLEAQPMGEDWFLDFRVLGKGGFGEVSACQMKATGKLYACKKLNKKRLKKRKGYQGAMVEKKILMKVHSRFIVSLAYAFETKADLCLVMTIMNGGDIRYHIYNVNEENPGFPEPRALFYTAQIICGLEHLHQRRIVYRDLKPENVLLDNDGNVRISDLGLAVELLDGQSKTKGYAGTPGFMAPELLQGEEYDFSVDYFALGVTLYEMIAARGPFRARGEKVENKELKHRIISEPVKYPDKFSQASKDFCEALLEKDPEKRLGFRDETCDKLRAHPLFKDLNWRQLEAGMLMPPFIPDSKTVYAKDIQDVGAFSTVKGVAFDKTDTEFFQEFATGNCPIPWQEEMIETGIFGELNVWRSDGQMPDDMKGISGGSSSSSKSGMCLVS
The experiment in a line: Inhibition of human GRK1 using casein as substrate in presence of [gamma33P]ATP by radiometric hotspot kinase assay.

Assay [1] addresses T2, G protein-coupled receptor kinase 6 (Homo sapiens, UniProt P43250). The assay can be described thus: Inhibition of recombinant full-length human GRK6 using casein as substrate measured after 80 mins in presence of [gamma33P]ATP by radiometric scintillation counting method.
Target sequence in this assay (P43250 whole entry): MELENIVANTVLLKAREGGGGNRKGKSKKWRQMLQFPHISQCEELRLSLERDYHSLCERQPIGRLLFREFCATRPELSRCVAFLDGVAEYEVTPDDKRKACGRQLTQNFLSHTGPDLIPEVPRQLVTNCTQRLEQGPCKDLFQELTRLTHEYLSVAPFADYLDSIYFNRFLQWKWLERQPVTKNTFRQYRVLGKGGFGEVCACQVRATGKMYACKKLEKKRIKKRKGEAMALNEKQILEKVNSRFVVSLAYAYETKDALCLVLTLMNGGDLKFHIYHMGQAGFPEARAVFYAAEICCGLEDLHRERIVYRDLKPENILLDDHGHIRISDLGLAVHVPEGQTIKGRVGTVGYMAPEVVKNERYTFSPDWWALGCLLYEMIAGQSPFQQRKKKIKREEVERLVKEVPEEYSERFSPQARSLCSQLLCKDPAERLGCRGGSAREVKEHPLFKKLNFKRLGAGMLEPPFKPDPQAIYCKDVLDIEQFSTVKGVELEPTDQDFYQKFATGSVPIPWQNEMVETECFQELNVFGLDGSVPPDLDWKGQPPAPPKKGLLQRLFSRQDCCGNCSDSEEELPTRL
The target of assay [2] is Insulin-like growth factor 1 receptor (Homo sapiens, UniProt P08069). The assay can be described thus: Inhibition of recombinant human IGF-1R (959 to end residues) using KKKSPGEYVNIEF as substrate incubated for 40 mins in presence of [gamma-33ATP] by radiometric scintillation counting method.
Insulin-like growth factor 1 receptor, sequence (P08069 31-736 limits assumed): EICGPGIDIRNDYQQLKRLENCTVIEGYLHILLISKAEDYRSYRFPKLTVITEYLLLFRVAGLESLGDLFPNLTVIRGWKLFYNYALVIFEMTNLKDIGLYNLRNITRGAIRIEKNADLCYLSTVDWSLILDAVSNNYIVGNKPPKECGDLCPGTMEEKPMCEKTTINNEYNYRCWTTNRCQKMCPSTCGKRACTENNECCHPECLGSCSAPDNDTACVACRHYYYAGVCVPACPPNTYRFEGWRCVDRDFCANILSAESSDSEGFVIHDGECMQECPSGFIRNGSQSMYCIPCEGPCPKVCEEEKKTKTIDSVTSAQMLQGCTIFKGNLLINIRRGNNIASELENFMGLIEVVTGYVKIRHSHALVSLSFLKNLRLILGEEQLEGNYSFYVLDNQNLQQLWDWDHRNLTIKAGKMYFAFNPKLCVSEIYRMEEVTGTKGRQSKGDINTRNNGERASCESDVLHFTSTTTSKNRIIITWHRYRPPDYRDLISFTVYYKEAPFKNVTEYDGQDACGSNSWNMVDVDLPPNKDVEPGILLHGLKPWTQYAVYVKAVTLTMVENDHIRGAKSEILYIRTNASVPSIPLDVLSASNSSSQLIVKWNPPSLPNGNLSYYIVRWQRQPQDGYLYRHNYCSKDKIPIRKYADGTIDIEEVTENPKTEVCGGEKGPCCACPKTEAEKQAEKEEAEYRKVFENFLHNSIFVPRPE
Insulin-like growth factor 1 receptor, sequence (P08069 741-1367 limits assumed): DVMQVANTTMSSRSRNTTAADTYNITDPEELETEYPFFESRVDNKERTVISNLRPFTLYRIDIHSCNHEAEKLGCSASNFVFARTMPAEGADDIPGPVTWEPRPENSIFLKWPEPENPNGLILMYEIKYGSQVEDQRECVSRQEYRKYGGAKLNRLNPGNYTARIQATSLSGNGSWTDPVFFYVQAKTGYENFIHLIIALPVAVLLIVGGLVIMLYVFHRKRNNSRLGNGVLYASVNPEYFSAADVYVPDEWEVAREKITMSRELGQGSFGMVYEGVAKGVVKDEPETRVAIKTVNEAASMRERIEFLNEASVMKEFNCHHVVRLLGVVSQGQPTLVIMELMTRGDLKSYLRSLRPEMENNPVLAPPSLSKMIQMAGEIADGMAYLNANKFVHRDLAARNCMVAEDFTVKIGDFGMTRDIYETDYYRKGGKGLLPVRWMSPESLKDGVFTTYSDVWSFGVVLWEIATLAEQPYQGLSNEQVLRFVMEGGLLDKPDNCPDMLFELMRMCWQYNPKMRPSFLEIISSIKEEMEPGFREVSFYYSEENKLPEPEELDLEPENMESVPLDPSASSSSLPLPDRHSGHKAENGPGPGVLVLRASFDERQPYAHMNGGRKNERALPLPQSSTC
Assay [3] addresses T2, G protein-coupled receptor kinase 6. The assay can be described thus: Inhibition of human GRK6 using casein as substrate in presence of [gamma33P]ATP by radiometric hotspot kinase assay.
Target sequence in this assay (P43250 whole entry): as the sequence (P43250 whole entry) above
Assay [4] has as its target G protein-coupled receptor kinase 4 (Homo sapiens, UniProt P32298). The experiment in a line: Inhibition of human GRK4 using casein as substrate in presence of [gamma33P]ATP by radiometric hotspot kinase assay.
A further assay addresses T3, Rhodopsin kinase GRK7 (Homo sapiens, UniProt Q8WTQ7).
T3 sequence (Q8WTQ7 whole entry): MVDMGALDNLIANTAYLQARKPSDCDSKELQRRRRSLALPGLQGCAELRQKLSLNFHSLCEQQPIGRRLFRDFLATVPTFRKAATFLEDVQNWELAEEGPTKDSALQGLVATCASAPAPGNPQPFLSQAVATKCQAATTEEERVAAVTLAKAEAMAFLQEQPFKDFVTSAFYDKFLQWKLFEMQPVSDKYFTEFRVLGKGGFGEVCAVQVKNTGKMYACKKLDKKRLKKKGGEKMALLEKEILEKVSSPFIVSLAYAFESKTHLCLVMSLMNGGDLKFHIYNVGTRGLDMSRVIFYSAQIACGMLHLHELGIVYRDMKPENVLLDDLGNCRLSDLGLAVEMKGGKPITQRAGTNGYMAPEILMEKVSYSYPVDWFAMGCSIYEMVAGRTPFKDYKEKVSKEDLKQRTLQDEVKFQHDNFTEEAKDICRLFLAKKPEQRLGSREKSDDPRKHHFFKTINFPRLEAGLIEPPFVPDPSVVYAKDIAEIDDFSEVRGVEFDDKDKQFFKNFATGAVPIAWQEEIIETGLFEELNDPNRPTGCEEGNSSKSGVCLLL
The experiment in a line: Inhibition of recombinant full length human GRK7 using casein as substrate incubated for 40 mins in presence of [gamma-33ATP] by scintillation counting based radiometry assay.

The target in another assay is T4, Aurora kinase A (Homo sapiens, UniProt O14965).
T4 sequence (O14965 whole entry): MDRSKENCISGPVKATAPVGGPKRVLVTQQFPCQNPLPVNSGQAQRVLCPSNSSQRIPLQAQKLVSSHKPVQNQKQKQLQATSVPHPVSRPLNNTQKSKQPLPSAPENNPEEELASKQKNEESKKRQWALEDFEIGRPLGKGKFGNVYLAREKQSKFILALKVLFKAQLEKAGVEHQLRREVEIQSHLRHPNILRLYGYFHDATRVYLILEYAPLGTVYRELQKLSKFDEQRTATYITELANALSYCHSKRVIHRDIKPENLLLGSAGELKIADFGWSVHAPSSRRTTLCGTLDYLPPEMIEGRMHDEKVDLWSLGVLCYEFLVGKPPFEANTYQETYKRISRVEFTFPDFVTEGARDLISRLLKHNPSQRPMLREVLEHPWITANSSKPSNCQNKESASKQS
The experiment in a line: Inhibition of recombinant full length human Aurora A using LRRASLG as substrate incubated for 40 mins in presence of [gamma-33ATP] by radiometric scintillation counting method.

Assay [5] has as its target T5, G protein-coupled receptor kinase 3 (Homo sapiens, UniProt P35626).
T5 sequence (P35626 whole entry): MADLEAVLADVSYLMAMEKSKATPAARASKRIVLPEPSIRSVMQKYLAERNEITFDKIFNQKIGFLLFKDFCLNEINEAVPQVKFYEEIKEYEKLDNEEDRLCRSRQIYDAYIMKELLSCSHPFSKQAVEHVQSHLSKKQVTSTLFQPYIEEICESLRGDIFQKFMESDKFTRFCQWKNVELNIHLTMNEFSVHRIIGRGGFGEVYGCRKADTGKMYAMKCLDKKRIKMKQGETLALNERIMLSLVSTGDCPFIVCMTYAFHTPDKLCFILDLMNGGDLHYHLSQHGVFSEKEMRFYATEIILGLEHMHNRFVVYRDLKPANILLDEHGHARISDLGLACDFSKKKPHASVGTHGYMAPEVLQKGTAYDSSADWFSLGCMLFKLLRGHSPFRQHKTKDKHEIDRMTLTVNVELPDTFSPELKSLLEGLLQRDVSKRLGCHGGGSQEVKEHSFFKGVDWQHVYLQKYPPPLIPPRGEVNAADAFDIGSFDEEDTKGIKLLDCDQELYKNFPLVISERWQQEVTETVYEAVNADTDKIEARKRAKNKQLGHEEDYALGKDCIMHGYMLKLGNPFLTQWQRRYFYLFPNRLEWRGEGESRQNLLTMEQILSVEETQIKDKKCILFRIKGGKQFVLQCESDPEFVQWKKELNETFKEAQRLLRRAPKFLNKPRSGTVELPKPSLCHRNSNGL
The assay can be described thus: Inhibition of human GRK3 using casein as substrate in presence of [gamma33P]ATP by radiometric hotspot kinase assay.

Assay [6] addresses T2, G protein-coupled receptor kinase 6. The experiment in a line: Binding affinity to FLAG-tagged GRK6 in human KMS11 cells incubated for […] by ITDR assay. Type of assay: cell-based, KMS-11.
Target sequence in this assay (P43250 whole entry): as the sequence (P43250 whole entry) above
In assay [7] the target is T6, Beta-adrenergic receptor kinase 1 (Homo sapiens, UniProt P25098).
T6 sequence (P25098 whole entry): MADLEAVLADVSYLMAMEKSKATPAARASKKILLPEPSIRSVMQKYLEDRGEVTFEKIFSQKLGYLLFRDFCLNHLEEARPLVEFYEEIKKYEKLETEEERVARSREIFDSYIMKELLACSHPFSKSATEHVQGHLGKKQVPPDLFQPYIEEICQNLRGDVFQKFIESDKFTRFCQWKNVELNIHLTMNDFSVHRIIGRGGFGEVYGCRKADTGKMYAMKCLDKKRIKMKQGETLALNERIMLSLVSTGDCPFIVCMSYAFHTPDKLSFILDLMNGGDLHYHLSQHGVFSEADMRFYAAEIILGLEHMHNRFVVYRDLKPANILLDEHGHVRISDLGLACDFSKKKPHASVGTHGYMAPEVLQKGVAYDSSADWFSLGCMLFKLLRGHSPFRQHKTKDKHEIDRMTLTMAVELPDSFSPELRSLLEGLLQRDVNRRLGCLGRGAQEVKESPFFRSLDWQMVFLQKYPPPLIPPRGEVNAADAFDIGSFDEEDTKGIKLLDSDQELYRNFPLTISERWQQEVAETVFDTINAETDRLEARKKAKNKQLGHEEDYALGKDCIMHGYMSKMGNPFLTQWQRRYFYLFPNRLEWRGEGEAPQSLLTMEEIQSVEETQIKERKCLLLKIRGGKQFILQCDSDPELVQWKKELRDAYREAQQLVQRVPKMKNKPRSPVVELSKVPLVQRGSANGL
The experiment in a line: Inhibition of human GRK2 using casein as substrate in presence of [gamma33P]ATP by radiometric hotspot kinase assay.

Assay [8] has as its target T2, G protein-coupled receptor kinase 6. The experiment in a line: Inhibition of recombinant full-length human GRK6 using casein as substrate at 1 uM measured after 80 mins in presence of [gamma33P]ATP by radiometric scintillation counting method relative to control.
Target sequence in this assay (P43250 whole entry, looked up): as the sequence (P43250 whole entry) above

Each structure is given as a SMILES string. Where only a bound is given, the exact number is not on record here.

G protein-coupled receptor kinase 4, sequence (P32298 whole entry): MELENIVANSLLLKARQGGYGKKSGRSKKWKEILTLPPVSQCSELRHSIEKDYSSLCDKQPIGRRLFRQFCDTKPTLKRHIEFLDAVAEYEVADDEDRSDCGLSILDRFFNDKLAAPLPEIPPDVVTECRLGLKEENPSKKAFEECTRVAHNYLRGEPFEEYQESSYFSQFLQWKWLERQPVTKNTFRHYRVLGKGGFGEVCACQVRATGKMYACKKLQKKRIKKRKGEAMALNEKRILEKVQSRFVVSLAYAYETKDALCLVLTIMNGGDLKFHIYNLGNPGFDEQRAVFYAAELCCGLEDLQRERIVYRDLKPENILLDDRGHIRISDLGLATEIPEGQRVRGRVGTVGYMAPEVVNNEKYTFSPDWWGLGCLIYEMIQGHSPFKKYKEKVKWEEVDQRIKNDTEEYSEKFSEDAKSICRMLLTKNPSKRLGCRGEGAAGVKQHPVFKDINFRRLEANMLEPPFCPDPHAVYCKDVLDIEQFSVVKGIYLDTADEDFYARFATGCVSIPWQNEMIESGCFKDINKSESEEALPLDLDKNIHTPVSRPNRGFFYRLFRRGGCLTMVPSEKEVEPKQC

For the compound `CCc1cc(Nc2nc(NCc3ccc(F)cn3)nc3cccc(OC)c23)n[nH]1`, the half-maximal inhibitory concentration (IC50) was 450 nM at Rhodopsin kinase GRK1; 18 nM in assay [1]; above 10000 nM in assay [2]; 33 nM in assay [3]; 190 nM in [4]; 36 nM on Rhodopsin kinase GRK7. Further, the 50% inhibitory concentration (IC50) at Aurora kinase A is 4600 nM; in assay [5] it was above 10000 nM; in [6], 10000 nM; in assay [7], above 10000 nM.

Take `CCc1cc(Nc2nc(N[C@@H](C)c3ccc(F)cn3)nc3cccc(OC)c23)n[nH]1`: the concentration for half-maximal inhibition (IC50) was 190 nM at Rhodopsin kinase GRK1; 7.2 nM in assay [1]; 18 nM in assay [3]; 97 nM in [4]; 15 nM at Rhodopsin kinase GRK7; 860 nM on Aurora kinase A. The half-inhibitory concentration (IC50) is above 10000 nM in assay [5], 2000 nM in assay [6] and above 10000 nM in assay [7].

`Cc1cc(Nc2nc(N[C@@H](C)c3ccc(F)cc3)c(C#N)cc2F)n[nH]1`: the inhibition in assay [8] was determined as 79%.

As for `N#CCc1ccc(Nc2nc(Nc3cc(C4CCC4)[nH]n3)c3ccccc3n2)cc1`, in assay [8], the inhibition came to 95%.
